Assay results from patent publication US20110207660A1, “PHARMACEUTICAL FORMULATIONS OF AN HCV PROTEASE INHIBITOR IN A SOLID MOLECULAR DISPERSION” (Schering Corporation, priority 2008, published 2011).

Legend:
[1] = Biopharmaceutics Classification System class; assay type: physicochemical; conditions: low solubility and low permeability
[2] = in vitro IC90 of Compound I; conditions: reference line in FIGS. 5A and 5B
[3] = Clinical Study 2: once-a-day 300 mg Compound I with 100 mg ritonavir for 10 days, healthy human subjects, fed; conditions: in vivo, steady state, Day 10, formulation G tablets 3×100 mg QD + 100 mg ritonavir QD, 8 healthy human subjects, read-out: Cmin Range
Protocol: The pharmacokinetic profile of Compound I following once-a-day oral administration of 300 mg Compound I in a formulation of the present invention in tablet form (specifically exemplary formulation G described in Table 3A, 3×100 mg, QD) in combination with 100 mg ritonavir (RTV, 1×100 mg, QD) for 10-days to healthy human subjects under fed conditions (i.e., following a standard meal) was determined. […] Blood was collected from each subject pre-dose (on Days 7, 8, and 9), as well as 0.5, 1, 1.5, 2, 3, 4, 5, 6, 7, 8, 10, 12, 16, and 24 hr post-dose (on Day 10) for determining the concentration of Compound I in the plasma and to calculate the pharmacokinetic parameters for each formulation.

SMILES: CCCC[C@H](NC(=O)[C@@H]1[C@@H]2[C@H](CN1C(=O)[C@@H](NC(=O)NC1(CS(=O)(=O)C(C)(C)C)CCCCC1)C(C)(C)C)C2(C)C)C(=O)C(=O)NC1CC1 [Compound I]
- Biopharmaceutics Classification System class [1]: Class IV
- in vitro IC90 [2]: 28 ng/mL
- concentration at 10 days [3]: 167 to 426 ng/mL
